Test results taken from article PMC7076385, “Evaluation of the Solid Dispersion System Engineered from Mesoporous Silica and Polymers for the Poorly Water Soluble Drug Indomethacin: In Vitro and In Vivo” (Pharmaceutics, 2020).
Values after ≈ are worked out from the molar mass of the structure shown.

Key:
[1] = Solubility studies (crystalline and amorphous solubility, UV analysis); assay type: physicochemical; details: phosphate buffered saline (PBS), pH 6.8 PBS, 25 °C
Experimental: The “crystalline solubility” was measured by the following method. An excess amount of crystal IMC powder was added to 10 mL of pH 6.8 PBS. These mixtures were kept at 25 °C and stirred at 300 rpm for 48 h. Ultracentrifugation was performed at 12,000 rpm and 25 °C for 30 min to separate excess solids using an Optima L-100XP ultracentrifuge (Beckman Coulter Inc., Brea, CA, USA). Then 5 mL of the supernatant was taken for ultraviolet (UV) spectroscopy analysis. All samples were prepared in triplicate.
The solubility of the amorphous IMC in the presence of excipients was also determined by calculating the solution concentration evolved from SDs at 25 °C after 48 h. Briefly, IMC–SDs were prepared by solvent evaporation directly from scintillation vials using a rotary evaporator. Then, 10 mL of pH 6.8 PBS was added. Solution concentration measurements were conducted following the ultraviolet (UV) spectroscopy analysis. The concentration of IMC was calculated with a standard curve built before.

[2] = In vitro dissolution, USP II paddle method; assay type: physicochemical; details: at 90 min, pH 6.8 PBS
Experimental: The optimum ratios of all solid dispersion carriers were selected by drug release experiments in vitro. In vitro dissolution studies on pure IMC and SDs with different carriers were carried out using the United States Pharmacopeia Apparatus II (USP II) paddle method (100 rpm, 37 °C, and 250 mL pH 6.8 phosphate buffer solutions) with a ZRS-8G dissolution tester (Shanghai, China). Ten milligrams of sample powder was placed in the dissolution medium, and 5 mL of pH 6.8 phosphate buffer solution (PBS, artificial intestinal fluid) was withdrawn at pre-designed time intervals (0, 5, 10, 15, 20, 30, 40, 50, 60 and 90 min) prior to filtration. The concentration of samples was analyzed using an UV spectrophotometer (756 PC UV-2200, Shanghai, China) at 320 nm. All measurements were repeated three times.

[3] = In vivo pharmacokinetic study after oral administration; details: male, Sprague-Dawley, rat, plasma, rats, 40 mg/kg
Experimental: Male Sprague–Dawley rats (body weight 200 ± 20 g) were randomly divided into three groups (n = 3). Sprague–Dawley rats (200 ± 20 g) were obtained from Animal Experiment Center of Shanghai Institute of Material Medica, Shanghai, China. All animal experiments were performed by strictly following Institutional Animal Care and Use Committee (IACUC) guidelines (71044, 10 August 2019). Prior to the experiments, the rats were fasted overnight with free access to water. Aqueous suspensions of IMC, SDs with MSNs (F3), SDs with MSNs and Kollicoat IR (F6), and SDs with MSNs and HPMC (F9) at 40 mg/kg were orally administered, respectively, and blood samples (0.5 mL) were collected at different time points (0, 0.5, 1, 2, 4, 6, 8, 12, and 24 h) in microcentrifuge tubes containing heparin by retro-orbital venipuncture technique. The blood samples were immediately centrifuged at 4000 rpm for 10 min, and the supernatant was collected for further processing.
Plasma samples were processed as follows: 200 µL plasma samples were mixed with 20 µL of an internal standard solution (0.5 mg/mL naproxen), 90 µL 10% KH2PO4, and 1 mL dichloromethane, and then the mixture was vortexed for 3 min. Then, the mixture solutions were centrifuged at 10,000 rpm for 4 min, the organic layer was remained, and then the organic layer was evaporated in a gentle stream of nitrogen at room temperature. The residue was suspended in 100 µL of the mobile phase (acetonitrile:0.01 M H3PO4 = 55:45). After vortex mixing and centrifugation, samples were analyzed using HPLC.

[4] = based on Equations (6) and (7); cited from earlier work

solubility at 48 h [1]: 23 µg/mL (≈ 64.3 µM) | Folds (increase of cumulative dissolution rate compared to pure IMC) [2]: 1.00 ± 0.28 folds | Cumulative Drug Dissolution Rate (%) ([2]; 37 °C, 100 rpm, mean ± SD, n = 3): 27.43 ± 0.96% | Tmax [3]: 4 h | AUC(0-t) ([3]; mean ± SD, n = 3): 1240 ± 189 µg·h/mL | Cmax ([3]; mean ± SD, n = 3): 125 ± 3.8 µg/mL
SMILES: COc1ccc2c(c1)c(CC(=O)O)c(C)n2C(=O)c1ccc(Cl)cc1 [IMC, Indomethacin]
Hansen solubility parameter δ [4]: 24.8 MPa^1/2
